Reference: PubChem BioAssay AID330 (DTP/NCI, 2004)
Values joined by “and” are separate entries in the source; they are usually repeats but may differ in a detail not shown here. Equal entries are not always repeated. Toxic doses and inconclusive results are not listed.

Test system: P388 leukemia ip, CD2F1 mice, survival T/C
Experiment: NCI In Vivo Anticancer Drug Screen. Data for tumor model P388 Leukemia (intraperitoneal) in CD2F1 (CDF1) mice
Conditions: endpoint: median survival time, higher = longer survival
How it was run: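 Mice carrying the transplanted tumor received test compound or vehicle. Survival was recorded in each group, and the value is the treated-group measurement divided by that of the vehicle-treated control group.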

[1] = dose: 50.0 mg/kg/injection, schedule: Q01DX005 (ip), vehicle: saline with Tween-80
[2] = dose: 100.0 mg/kg/injection, schedule: Q01DX005 (ip), vehicle: saline with Tween-80
[3] = dose: 200.0 mg/kg/injection, schedule: Q01DX005 (ip), vehicle: saline with Tween-80
[4] = dose: 25.0 mg/kg/injection, schedule: Q01DX005 (ip), vehicle: Klucel (hydroxypropylcellulose) (HPC)
[5] = dose: 50.0 mg/kg/injection, schedule: Q01DX005 (ip), vehicle: Klucel (hydroxypropylcellulose) (HPC)
[6] = dose: 100.0 mg/kg/injection, schedule: Q04DX002 (ip), vehicle: saline with Tween-80
[7] = dose: 200.0 mg/kg/injection, schedule: Q04DX002 (ip), vehicle: saline with Tween-80
[8] = dose: 400.0 mg/kg/injection, schedule: Q04DX002 (ip), vehicle: saline with Tween-80
[9] = dose: 6.25 mg/kg/injection, schedule: Q01DX009 (ip), vehicle: saline with Tween-80

CCCCc1ccc(-n2c(C)c(COC(=O)NC)c(COC(=O)NC)c2C)cc1
T/C (dose: 12.5 mg/kg/injection, schedule: Q01DX009 (ip), vehicle: Klucel (hydroxypropylcellulose) (HPC)): 172 % of control and 190 % of control | T/C (dose: 25.0 mg/kg/injection, schedule: Q01DX009 (ip), vehicle: Klucel (hydroxypropylcellulose) (HPC)): 152 % of control and 190 % of control

CC1(C)C(=O)C=C[C@]2(C)[C@H]3CC[C@]4(C)C(=CC[C@H]4c4ccoc4)[C@]3(C)[C@H](O)C[C@@H]12
T/C (dose: 7.81 mg/kg/injection, schedule: Q01DX005 (ip), vehicle: Klucel (hydroxypropylcellulose) (HPC)): 98 % of control | T/C (dose: 15.63 mg/kg/injection, schedule: Q01DX005 (ip), vehicle: Klucel (hydroxypropylcellulose) (HPC)): 98 % of control | T/C (dose: 31.25 mg/kg/injection, schedule: Q01DX005 (ip), vehicle: Klucel (hydroxypropylcellulose) (HPC)): 95 % of control | T/C (dose: 62.5 mg/kg/injection, schedule: Q01DX005 (ip), vehicle: Klucel (hydroxypropylcellulose) (HPC)): 95 % of control | T/C (dose: 125.0 mg/kg/injection, schedule: Q01DX005 (ip), vehicle: Klucel (hydroxypropylcellulose) (HPC)): 93 % of control

C/C(=C1\N=C(c2ccccc2)OC1=O)c1ccccc1
T/C [1]: 96 % of control | T/C [2]: 92 % of control | T/C [3]: 95 % of control

Nc1ccc(N=N/C(=N\Nc2ccccc2[As](=O)(O)O)C(=O)Nc2ccccc2)c(Cl)c1
T/C (dose: 6.25 mg/kg/injection, schedule: Q01DX005 (ip), vehicle: Klucel (hydroxypropylcellulose) (HPC)): 119 % of control | T/C [4]: 117 % of control | T/C [5]: 110 % of control and 123 % of control

CCCCCCCCCCCCOC1C=C(C)C(=O)O1 (stereo not given)
T/C [6]: 100 % of control | T/C [7]: 101 % of control | T/C [8]: 100 % of control

CC(C)(C)c1cc(/C2=c3\cc/c([n-]3)=C(\c3cc(C(C)(C)C)c(O)c(C(C)(C)C)c3)c3ccc([n-]3)/C(c3cc(C(C)(C)C)c(O)c(C(C)(C)C)c3)=c3/cc/c([n-]3)=C(\c3cc(C(C)(C)C)c(O)c(C(C)(C)C)c3)c3ccc2[n-]3)cc(C(C)(C)C)c1O.[Zn]
T/C [6]: 97 % of control | T/C [7]: 88 % of control | T/C [8]: 90 % of control

CCOC(=O)c1c[nH]n2ccnc12
T/C [6]: 100 % of control | T/C [7]: 103 % of control

C#CC(=O)OC
T/C (dose: 25.0 mg/kg/injection, schedule: Q04DX002 (ip), vehicle: saline): 102 % of control | T/C (dose: 50.0 mg/kg/injection, schedule: Q04DX002 (ip), vehicle: saline): 98 % of control | T/C (dose: 100.0 mg/kg/injection, schedule: Q04DX002 (ip), vehicle: saline): 106 % of control

Cc1cccc(NC(=O)N(CCCl)N=O)c1
T/C (dose: 0.38 mg/kg/injection, schedule: Q04DX003 (ip), vehicle: saline with Tween-80): 186 % of control | T/C (dose: 0.75 mg/kg/injection, schedule: Q04DX003 (ip), vehicle: saline with Tween-80): 218 % of control | T/C (dose: 1.5 mg/kg/injection, schedule: Q01DX009 (ip), vehicle: saline): 159 % of control | T/C (dose: 1.5 mg/kg/injection, schedule: Q04DX003 (ip), vehicle: saline with Tween-80): 272 % of control | T/C (dose: 3.0 mg/kg/injection, schedule: Q01DX009 (ip), vehicle: saline): 206 % of control | T/C (dose: 3.13 mg/kg/injection, schedule: Q01DX009 (ip), vehicle: saline with Tween-80): 254 % of control | T/C (dose: 3.13 mg/kg/injection, schedule: Q04DX003 (ip), vehicle: saline): 190 % of control | T/C [9]: 95 % of control | T/C (dose: 6.25 mg/kg/injection, schedule: Q04DX003 (ip), vehicle: saline with Tween-80): 200 % of control | T/C (dose: 6.25 mg/kg/injection, schedule: Q04DX003 (ip), vehicle: saline): 209 % of control | T/C (dose: 8.25 mg/kg/injection, schedule: Q04DX003 (ip), vehicle: saline with Tween-80): 276 % of control | T/C (dose: 12.5 mg/kg/injection, schedule: Q04DX003 (ip), vehicle: saline with Tween-80): 272 % of control and 285 % of control | T/C (dose: 12.5 mg/kg/injection, schedule: Q04DX003 (ip), vehicle: saline): 118 % of control

O=Cc1ccc(NCCCN2CCN(CCCNc3ccc(C=O)c4sc5ccccc5c(=O)c34)CC2)c2c(=O)c3ccccc3sc12
T/C (dose: 1.56 mg/kg/injection, schedule: Q01DX005 (ip), vehicle: saline with Tween-80): 107 % of control | T/C (dose: 3.13 mg/kg/injection, schedule: Q01DX005 (ip), vehicle: saline with Tween-80): 101 % of control | T/C (dose: 6.25 mg/kg/injection, schedule: Q01DX005 (ip), vehicle: saline with Tween-80): 95 % of control | T/C (dose: 12.5 mg/kg/injection, schedule: Q01DX005 (ip), vehicle: saline with Tween-80): 99 % of control | T/C [1]: 88 % of control

CCOC(=O)C(Br)(C(=O)OCC)C(C)C
T/C (dose: 50.0 mg/kg/injection, schedule: Q01DX009 (ip), vehicle: saline): 111 % of control | T/C (dose: 100.0 mg/kg/injection, schedule: Q01DX009 (ip), vehicle: saline): 109 % of control | T/C (dose: 200.0 mg/kg/injection, schedule: Q01DX009 (ip), vehicle: saline): 120 % of control

O=C1/C(=C/N2CCN(c3ccccc3)CC2)Cc2c(F)cccc21
T/C (dose: 100.0 mg/kg/injection, schedule: Q04DX003 (ip), vehicle: Klucel (hydroxypropylcellulose) (HPC)): 100 % of control | T/C (dose: 200.0 mg/kg/injection, schedule: Q04DX003 (ip), vehicle: Klucel (hydroxypropylcellulose) (HPC)): 97 % of control | T/C (dose: 400.0 mg/kg/injection, schedule: Q04DX003 (ip), vehicle: Klucel (hydroxypropylcellulose) (HPC)): 100 % of control

Cc1cccc2c1C(=O)N(CC[P+](c1ccccc1)(c1ccccc1)c1ccccc1)C2=O
T/C (dose: 0.78 mg/kg/injection, schedule: Q01DX009 (ip), vehicle: water): 111 % of control | T/C (dose: 1.33 mg/kg/injection, schedule: Q01DX009 (ip), vehicle: water): 115 % of control | T/C (dose: 2.0 mg/kg/injection, schedule: Q01DX009 (ip), vehicle: water): 119 % of control | T/C (dose: 3.0 mg/kg/injection, schedule: Q01DX009 (ip), vehicle: water): 121 % of control

O=S(=O)(c1ccc(Cl)c(Cl)c1)N(c1cccc(C(F)(F)F)c1)S(=O)(=O)c1ccc(Cl)c(Cl)c1
T/C [9]: 100 % of control | T/C (dose: 12.5 mg/kg/injection, schedule: Q01DX009 (ip), vehicle: saline with Tween-80): 94 % of control | T/C (dose: 25.0 mg/kg/injection, schedule: Q01DX009 (ip), vehicle: saline with Tween-80): 97 % of control

NC1=NCc2c(sc3c2CCCC3)N1
T/C (dose: 12.5 mg/kg/injection, schedule: Q01DX005 (ip), vehicle: Klucel (hydroxypropylcellulose) (HPC)): 104 % of control | T/C [4]: 104 % of control | T/C [5]: 98 % of control and 103 % of control

CC(=O)Nc1ccc(SSc2ccc(NC(C)=O)s2)s1
T/C (dose: 50.0 mg/kg/injection, schedule: Q01DX001 (ip), vehicle: saline with Tween-80): 86 % of control | T/C (dose: 200.0 mg/kg/injection, schedule: Q01DX001 (ip), vehicle: saline with Tween-80): 90 % of control | T/C (dose: 400.0 mg/kg/injection, schedule: Q01DX001 (ip), vehicle: saline with Tween-80): 97 % of control

N#Cc1c(F)cccc1N(Cc1cccnc1)C(=S)Nc1ccc(Cl)c(Cl)c1
T/C [5]: 110 % of control | T/C (dose: 100.0 mg/kg/injection, schedule: Q01DX005 (ip), vehicle: Klucel (hydroxypropylcellulose) (HPC)): 110 % of control | T/C (dose: 200.0 mg/kg/injection, schedule: Q01DX005 (ip), vehicle: Klucel (hydroxypropylcellulose) (HPC)): 105 % of control

C/C=C/C=C1\C=Cc2c(C(=O)OC)coc(=O)c21
T/C (dose: 19.5 mg/kg/injection, schedule: Q01DX005 (ip), vehicle: Klucel (hydroxypropylcellulose) (HPC)): 107 % of control | T/C (dose: 39.0 mg/kg/injection, schedule: Q01DX005 (ip), vehicle: Klucel (hydroxypropylcellulose) (HPC)): 110 % of control | T/C (dose: 78.0 mg/kg/injection, schedule: Q01DX005 (ip), vehicle: Klucel (hydroxypropylcellulose) (HPC)): 108 % of control

COC(=O)C1=C(C(=O)OC)[C@@H]2CC[C@H]1[C@H]1[C@@H]2N=NN1c1ccccc1
T/C [1]: 106 % of control | T/C [2]: 86 % of control | T/C [3]: 99 % of control

O=C(c1ccccc1)c1ccc[n+](Cc2ccccc2)c1
T/C (dose: 25.0 mg/kg/injection, schedule: Q01DX005 (ip), vehicle: saline): 100 % of control | T/C (dose: 50.0 mg/kg/injection, schedule: Q01DX005 (ip), vehicle: saline): 111 % of control | T/C (dose: 100.0 mg/kg/injection, schedule: Q01DX005 (ip), vehicle: saline): 109 % of control

CCOC(=O)CC(C)C#N (stereo not given)
T/C (dose: 50.0 mg/kg/injection, schedule: Q01DX009 (ip), vehicle: saline with Tween-80): 99 % of control | T/C (dose: 100.0 mg/kg/injection, schedule: Q01DX009 (ip), vehicle: saline with Tween-80): 99 % of control | T/C (dose: 200.0 mg/kg/injection, schedule: Q01DX009 (ip), vehicle: saline with Tween-80): 101 % of control

CNC(=O)OCc1c(COC(=O)NC)c2n(c1C)CCS2(=O)=O
T/C (dose: 25.0 mg/kg/injection, schedule: Q01DX005 (ip), vehicle: saline with Tween-80): 106 % of control | T/C [1]: 101 % of control | T/C [2]: 86 % of control | T/C [3]: 88 % of control
